Calls of active or inactive are those of the source. The rule behind the calls is not given here.
Tests used:
[1] = tested on: Trypanosoma brucei rhodesiense; assay: Antitrypanosomal activity against Trypanosoma brucei rhodesiense STIB900 trypomastigotes incubated for 70 hrs by resazurin dye based microplate fluorometer; type: functional, organism-based; conditions: STIB900, 70 h
[2] = tested on: Trypanosoma cruzi; assay: Antitrypanosomal activity against Trypanosoma cruzi Tulahuen C4; type: functional, organism-based
[3] = tested on: Leishmania donovani; assay: Antitrypanosomal activity against Leishmania donovani amastigotes MHOM-ET-67/L8; type: functional, organism-based
[4] = Cytotoxicity against rat L6 cells; type: toxicity, cell-based
[5] = tested on: Trypanosoma brucei rhodesiense; assay: Antitrypanosomal activity against Trypanosoma brucei rhodesiense; type: functional, organism-based

SMILES | EC50 [1] | EC50 [5] | EC90 [5] | Activity [2] | Activity [3] | EC50 [4]
CN1CCN(c2ccc(-c3cc(-c4ccc(Cl)cc4)ncn3)cc2)CC1 | 0.5 µM |  |  | inactive | inactive | 16.4 µM
Cc1nc(-c2ccc(Cl)cc2)cc(-c2ccc(N3CCN(C)CC3)cc2)n1 | 0.6 µM |  |  | inactive | inactive | 5.3 µM
Cc1nc(-c2ccccc2)cc(-c2ccc(N3CCN(C)CC3)cc2)n1 | 2.8 µM |  |  | inactive | inactive | 79.7 µM
CN1CCN(c2ccc(-c3cc(-c4ccccc4)ncn3)cc2)CC1 | 3.8 µM |  |  | inactive | inactive | 42.7 µM
CSc1ccc(OCc2ncc([N+](=O)[O-])n2C)cc1 [FEXINIDAZOLE] |  | 0.76 µM | 0.76 µM |  |  | 
CN1CCN(c2ccc(-c3cc(-c4ccc(Cl)cc4Cl)ncn3)cc2)CC1 | 2.4 µM |  |  | inactive | inactive | > 100 µM
Cc1nc(-c2ccc(N3CCN(C)CC3)cc2)cc(-c2cccc(Cl)c2)n1 | 1.7 µM |  |  | inactive | inactive | 20.8 µM
CN1CCN(c2ccc(-c3cc(-c4ccc(Br)cc4)ncn3)cc2)CC1 | 0.6 µM |  |  | inactive | inactive | 14.4 µM
CN1CCN(c2ccc(-c3cc(-c4ccccc4Br)ncn3)cc2)CC1 | 9.7 µM |  |  | inactive | inactive | 39.6 µM
Cc1nc(-c2ccc(Br)cc2)cc(-c2ccc(N3CCN(C)CC3)cc2)n1 | 0.9 µM |  |  | inactive | inactive | 11.2 µM
COc1cc([C@@H]2c3cc4c(cc3[C@H](O)[C@H]3COC(=O)[C@H]23)OCO4)cc(OC)c1OC [PODOFILOX] |  |  |  |  |  | 0.02 µM
Cc1nc(-c2ccc(N3CCN(C)CC3)cc2)cc(-c2cccc(Br)c2)n1 | 1.6 µM |  |  | inactive | inactive | 21.1 µM
CN1CCN(c2ccc(-c3cc(-c4cccc(Cl)c4)ncn3)cc2)CC1 | 1.7 µM |  |  | inactive | inactive | 36.3 µM
CN1CCN(c2ccc(-c3cc(-c4cccc(Cl)c4Cl)ncn3)cc2)CC1 | 1.8 µM |  |  | inactive | inactive | 18.1 µM
CN1CCN(c2ccc(-c3cc(-c4cccc(Br)c4)ncn3)cc2)CC1 | 1.6 µM |  |  | inactive | inactive | 64.5 µM
CN1CCN(c2ccc(-c3cc(-c4ccccc4[N+](=O)[O-])ncn3)cc2)CC1 | 15.2 µM |  |  | inactive | inactive | 46.9 µM

Now from value to compound, other results behind:

EC50 [1] | EC50 [5] | EC90 [5] | SMILES | Activity [2] | Activity [3] | EC50 [4]
0.5 µM |  |  | CN1CCN(c2ccc(-c3cc(-c4ccc(Cl)cc4Cl)nc(N)n3)cc2)CC1 | inactive | inactive | 7.4 µM
5.8 µM |  |  | CN1CCN(c2ccc(-c3cc(-c4ccccc4Cl)ncn3)cc2)CC1 | inactive | inactive | 42.6 µM
3.6 µM |  |  | CN1CCN(c2ccc(-c3cc(-c4ccccc4)nc(N)n3)cc2)CC1 | inactive | inactive | 30 µM
3.6 µM |  |  | Cc1nc(-c2ccc(N3CCN(C)CC3)cc2)cc(-c2cccc(Cl)c2Cl)n1 | inactive | inactive | 37.3 µM
1.8 µM |  |  | CN1CCN(c2ccc(-c3cc(-c4ccc(Cl)cc4)nc(N)n3)cc2)CC1 | inactive | inactive | 13 µM
13.5 µM |  |  | Cc1nc(-c2ccc(N3CCN(C)CC3)cc2)cc(-c2ccccc2[N+](=O)[O-])n1 | inactive | inactive | 40.2 µM
10.3 µM |  |  | CN1CCN(c2ccc(-c3cc(-c4ccccc4Br)nc(N)n3)cc2)CC1 | inactive | inactive | 11.6 µM
4.3 µM |  |  | Cc1nc(-c2ccc(N3CCN(C)CC3)cc2)cc(-c2ccccc2Br)n1 | inactive | inactive | 35.2 µM
14 µM |  |  | CN1CCN(c2ccc(-c3cc(-c4ccccc4[N+](=O)[O-])nc(N)n3)cc2)CC1 | inactive | inactive | 7.1 µM
1.6 µM |  |  | CN1CCN(c2ccc(-c3cc(-c4ccc(Br)cc4)nc(N)n3)cc2)CC1 | inactive | inactive | 5.1 µM
20.2 µM |  |  | CN1CCN(c2ccc(-c3cc(-c4ccccc4Cl)nc(N)n3)cc2)CC1 | inactive | inactive | 40 µM
1.7 µM |  |  | CN1CCN(c2ccc(-c3cc(-c4cccc(Cl)c4)nc(N)n3)cc2)CC1 | inactive | inactive | 79.7 µM
10.1 µM |  |  | Cc1nc(-c2ccc(N3CCN(C)CC3)cc2)cc(-c2ccc(Cl)cc2Cl)n1 | inactive | inactive | > 100 µM
1.1 µM |  |  | CN1CCN(c2ccc(-c3cc(-c4cccc(Br)c4)nc(N)n3)cc2)CC1 | inactive | inactive | 33.6 µM
